From US10294207B2, “Pyrazole derivatives as TNIK, IKKϵ and TBK1 inhibitor and pharmaceutical composition comprising same” (GREEN CROSS CORPORATION, priority 2015, dated 2019)

Tests used:
TBK1 = target: T1, TBK1 (Homo sapiens, UniProt Q9UHD2); assay: TBK1 inhibition, ADP-Glo Kinase Assay; format: biochemical; settings: luminometer
T1 construct: purchased Promega V3991
T1 sequence (Q9UHD2 1-729): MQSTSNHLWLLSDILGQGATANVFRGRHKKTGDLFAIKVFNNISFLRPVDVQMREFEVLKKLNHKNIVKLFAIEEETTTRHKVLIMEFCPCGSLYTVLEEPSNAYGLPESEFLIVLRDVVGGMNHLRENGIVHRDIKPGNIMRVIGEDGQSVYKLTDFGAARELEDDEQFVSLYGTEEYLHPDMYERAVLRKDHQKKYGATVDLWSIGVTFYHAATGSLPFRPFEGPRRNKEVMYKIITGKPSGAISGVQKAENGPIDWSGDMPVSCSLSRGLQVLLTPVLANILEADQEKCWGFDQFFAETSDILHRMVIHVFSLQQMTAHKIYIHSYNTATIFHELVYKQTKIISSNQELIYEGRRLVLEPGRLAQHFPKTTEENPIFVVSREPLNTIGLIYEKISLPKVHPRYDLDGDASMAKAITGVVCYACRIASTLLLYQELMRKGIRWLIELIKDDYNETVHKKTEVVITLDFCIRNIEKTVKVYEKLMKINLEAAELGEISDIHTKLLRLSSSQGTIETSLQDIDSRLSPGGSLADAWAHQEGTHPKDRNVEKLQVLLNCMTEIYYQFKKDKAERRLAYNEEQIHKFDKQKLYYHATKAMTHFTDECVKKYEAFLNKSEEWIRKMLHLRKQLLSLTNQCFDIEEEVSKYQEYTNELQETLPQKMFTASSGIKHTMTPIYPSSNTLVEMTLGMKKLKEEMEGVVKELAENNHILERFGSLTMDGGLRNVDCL
Procedure, shortened: (§1)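 ADP-Glo luminescence reported ADP produced by each kinase, following the kit protocol. Reactions used commercial kinase enzyme systems in buffer of 40 mM Tris (pH 7.5), 20 mM MgCl2 and 0.1 mg/mL BSA.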

IKKε = target: T2, IKKε (Homo sapiens, UniProt Q14164); assay: IKKε inhibition, ADP-Glo Kinase Assay; format: biochemical; settings: luminometer
T2 construct: purchased Invitrogen PR8031B
T2 sequence (Q14164 1-716): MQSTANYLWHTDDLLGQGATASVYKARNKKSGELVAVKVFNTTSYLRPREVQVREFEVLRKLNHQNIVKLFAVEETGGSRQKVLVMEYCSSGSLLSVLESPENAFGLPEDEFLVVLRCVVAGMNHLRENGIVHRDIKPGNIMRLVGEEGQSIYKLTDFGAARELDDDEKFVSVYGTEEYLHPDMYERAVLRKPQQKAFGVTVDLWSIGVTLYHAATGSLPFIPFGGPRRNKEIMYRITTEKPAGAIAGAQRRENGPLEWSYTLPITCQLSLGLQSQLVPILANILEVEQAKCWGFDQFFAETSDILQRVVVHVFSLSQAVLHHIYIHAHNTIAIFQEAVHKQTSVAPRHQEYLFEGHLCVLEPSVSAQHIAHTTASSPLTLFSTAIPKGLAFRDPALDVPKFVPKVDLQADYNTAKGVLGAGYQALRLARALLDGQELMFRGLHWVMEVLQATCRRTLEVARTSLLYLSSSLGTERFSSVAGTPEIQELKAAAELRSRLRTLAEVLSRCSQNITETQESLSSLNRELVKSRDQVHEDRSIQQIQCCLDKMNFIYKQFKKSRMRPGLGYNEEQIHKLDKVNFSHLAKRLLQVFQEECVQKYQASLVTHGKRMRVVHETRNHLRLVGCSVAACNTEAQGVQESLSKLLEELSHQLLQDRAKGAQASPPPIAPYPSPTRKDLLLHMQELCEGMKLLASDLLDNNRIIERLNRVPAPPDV
Procedure, shortened: as §1

| Structure (SMILES) | IC50 (TBK1) [µM] | IC50 (IKKε) [µM] |
| --- | --- | --- |
| C[C@H](NC(=O)c1ccc2[nH]nc(NC(=O)c3ccc(N4CCN(C)CC4)cc3)c2c1)c1ccccc1 [Example 176, (S)-3-(4-(4-Methylpiperazin-1-yl)benzamido)-N-(1-phenylethyl)-1H-indazole-5-carboxamide] | 0.058 | 0.34 |
| O=C(NCc1ccccc1)c1ccc2[nH]nc(NC(=O)c3ccc(N4CCOCC4)cc3)c2c1 [Example 177, N-Benzyl-3-(4-morpholinobenzamido)-1H-indazole-5-carboxamide] | 0.011 | 0.033 |
| CN1CCN(c2ccc(C(=O)Nc3n[nH]c4ccc(C(=O)NCc5ccno5)cc34)cc2)CC1 [Example 178, N-(Isoxazol-5-ylmethyl)-3-(4-(4-methylpiperazin-1-yl)benzamido)-1H-indazole-5-carboxamide] | 0.037 | 0.16 |
| CC(NC(=O)c1ccc2[nH]nc(NC(=O)c3ccc(N4CCNCC4)cc3)c2c1)c1ccccc1 (centres unmarked) [Example 181, N-(1-Phenylethyl)-3-(4-(piperazin-1-yl)benzamido)-1H-indazole-5-carboxamide 2,2,2-trifluoroacetate] | 0.0039 | 0.022 |
| CC1CN(c2ccc(C(=O)Nc3n[nH]c4ccc(C(=O)NC(C)c5ccccc5)cc34)cc2)CC(C)O1 (centres unmarked) [Example 183, 3-(4-(2,6-Dimethylmorpholino)benzamido)-N-(1-phenylethyl)-1H-indazole-5-carboxamide] | 0.0043 | 0.018 |
| CC(NC(=O)c1ccc2[nH]nc(NC(=O)c3ccc(N4CCN[C@@H](C)C4)cc3)c2c1)c1ccccc1 (some centres unmarked) [Example 184, 3-(4-((8)-3-Methylpiperazin-1-yl)benzamido)-N-(1-phenylethyl)-1H-indazole-5-carboxamide 2,2,2-trifluoroacetate] | 0.0037 | 0.015 |

Compounds with a lower IC50 (TBK1), results first:

| IC50 (TBK1) [µM] | IC50 (IKKε) [µM] | Structure (SMILES) |
| --- | --- | --- |
| 0.0035 | 0.018 | CCC(NC(=O)c1ccc2[nH]nc(NC(=O)c3ccc(N4CCN(C)CC4)cc3)c2c1)c1ccccc1 (centres unmarked) [Example 187, 3-(4-(4-Methylpiperazin-1-yl)benzamido)-N-(1-phenylpropyl)-1H-indazole-5-carboxamide] |
| 0.0033 | 0.019 | CC(NC(=O)c1ccc2[nH]nc(NC(=O)c3ccc(N4CCN[C@H](C)C4)cc3)c2c1)c1ccccc1 (stereo partly drawn) [Example 185, 3-(4-((R)-3-Methylpiperazin-1-yl)benzamido)-N-(1-phenylethyl)-1H-indazole-5-carboxamide 2,2,2-trifluoroacetate] |
| 0.0032 | 0.017 | CCC(NC(=O)c1ccc2[nH]nc(NC(=O)c3ccc(N4CCOCC4)cc3)c2c1)c1ccccc1 (centres unmarked) [Example 188, 3-(4-Morpholinobenzamido)-N-(1-phenylpropyl)-1H-indazole-5-carboxamide] |
| 0.003 | 0.0081 | CC1CN(c2ccc(C(=O)Nc3n[nH]c4ccc(C(=O)NC(C)c5ccccc5)cc34)cc2)CC(C)N1 (centres unmarked) [Example 182, 3-(4-(3,5-Dimethylpiperazin-1-yl)benzamido)-N-(1-phenylethyl)-1H-indazole-5-carboxamide] |
| 0.0027 | 0.012 | CC(NC(=O)c1ccc2[nH]nc(NC(=O)c3ccc(N4C[C@@H](C)N[C@@H](C)C4)cc3)c2c1)c1ccccc1 (stereo partly drawn) [Example 186, 3-(4-((3R,5S)-3,5-Dimethylpiperazin-1-yl)benzamido)-N-(1-phenylethyl)-1H-indazole-5-carboxamide] |
| 0.0023 | 0.12 | CC(NC(=O)c1ccc2[nH]nc(NC(=O)c3ccc(N4CCOCC4)cc3)c2c1)c1ccccc1 (centres unmarked) [Example 180, 3-(4-Morpholinobenzamido)-N-(1-phenylethyl)-1H-indazole-5-carboxamide] |
| 0.0012 | 0.019 | CC(NC(=O)c1ccc2[nH]nc(NC(=O)c3ccc(N4CCN(C)CC4)cc3)c2c1)c1ccccc1 (centres unmarked) [Example 179, 3-(4-(4-Methylpiperazin-1-yl)benzamido)-N-(1-phenylethyl)-1H-indazole-5-carboxamide] |
